Earlier results in patent publication US9597313B2 (priority 2006, dated 2017).

Test system: aflatoxin-N7-guanine adducts
Settings: 100 mg chlorophyllin three times a day for four months

## chlorophyllin
  Reduction in median urinary levels of aflatoxin-N7-guanine adducts compared with placebo: 55%
